Experimental data: ChEMBL document CHEMBL1201862, “PubChem BioAssay data set” (2004)
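Where inhibition never reached the appropriate level, the endpoint shown equals the highest concentration tested. Otherwise, values were interpolated linearly from a five-concentration, 48-hour dose response in 96-well plates. GI50 is the concentration that inhibits growth by half.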 Calls of active or inactive are those of the source. Rule as the data show it: active = GI50 up to about 1.1 µM and inactive = higher.

What was measured:
Experiment in all cases: DTP human tumour cell line panel, 48 h
SK-MEL-5 = system: SK-MEL-5
COLO 205 = system: COLO 205
IGROV-1 = system: IGROV-1
RPMI-8226 = system: RPMI-8226
NCI/ADR-RES = system: NCI/ADR-RES
NCI-H23 = system: NCI-H23
UACC-257 = system: UACC-257
MCF7 = system: MCF7
HCT-116 = system: HCT-116
SK-MEL-28 = system: SK-MEL-28
OVCAR-4 = system: OVCAR-4
OVCAR-3 = system: OVCAR-3
SK-MEL-2 = system: SK-MEL-2
SF-539 = system: SF-539
PC-3 = system: PC-3
HCT-15 = system: HCT-15
HOP-62 = system: HOP-62
786-0 = system: 786-0
MDA-MB-231 = system: MDA-MB-231
HCC 2998 = system: HCC 2998

Compound	GI50 (SK-MEL-5)	GI50 (COLO 205)	GI50 (IGROV-1)	GI50 (RPMI-8226)	GI50 (NCI/ADR-RES)	GI50 (NCI-H23)	GI50 (UACC-257)	GI50 (MCF7)	GI50 (HCT-116)	GI50 (SK-MEL-28)	GI50 (OVCAR-4)	GI50 (OVCAR-3)	GI50 (SK-MEL-2)	GI50 (SF-539)	GI50 (PC-3)	GI50 (HCT-15) [µM]	GI50 (HOP-62)	GI50 (786-0)	GI50 (MDA-MB-231)	GI50 (HCC 2998)
Cc1ccc(/N=N/c2c(O)c3ccccc3[nH]c2=O)c(S(=O)(=O)N(C)C)c1	> 100 µM (inactive)	> 100 µM (inactive)	> 100 µM (inactive)	> 100 µM (inactive)	> 100 µM (inactive)	> 100 µM (inactive)	> 100 µM (inactive)	> 100 µM (inactive)	> 100 µM (inactive)	> 100 µM (inactive)	> 100 µM (inactive)	> 100 µM (inactive)	> 100 µM (inactive)	> 100 µM (inactive)	> 100 µM (inactive)	> 100	> 100 µM (inactive)	> 100 µM (inactive)	> 100 µM (inactive)	–
CO[P@@]1(=O)O[C@@H](c2ccccc2)[C@H](O)[C@]1(O)c1ccccc1	> 100 µM (inactive)	> 100 µM (inactive)	> 100 µM (inactive)	> 100 µM (inactive)	> 100 µM (inactive)	> 100 µM (inactive)	> 100 µM (inactive)	> 100 µM (inactive)	> 100 µM (inactive)	> 100 µM (inactive)	> 100 µM (inactive)	> 100 µM (inactive)	> 100 µM (inactive)	> 100 µM (inactive)	> 100 µM (inactive)	> 100	–	> 100 µM (inactive)	> 100 µM (inactive)	–
N=C(N)C1CN(CCc2c[nH]c3ccccc23)C(=O)NC1=O (centres undefined)	> 100 µM (inactive)	> 100 µM (inactive)	> 100 µM (inactive)	> 100 µM (inactive)	> 100 µM (inactive)	> 100 µM (inactive)	> 100 µM (inactive)	> 100 µM (inactive)	> 100 µM (inactive)	> 100 µM (inactive)	> 100 µM (inactive)	> 100 µM (inactive)	–	–	> 100 µM (inactive)	> 100	> 100 µM (inactive)	> 100 µM (inactive)	> 100 µM (inactive)	> 100 µM (inactive)
CC[C@H](C)C1=C(O)[N@+]2([O-])Oc3ccc(-c4c(O)c(O)c(-c5ccc(O)cc5)c(OC(C)=O)c4OC(C)=O)cc3O[C@]2([C@@H](C)CC)C(=O)N1O	19 µM (inactive)	> 50 µM (inactive)	6.4 µM (inactive)	10.6 µM (inactive)	16.5 µM (inactive)	47.3 µM (inactive)	> 50 µM (inactive)	18.7 µM (inactive)	10.1 µM (inactive)	46.8 µM (inactive)	11.6 µM (inactive)	19.8 µM (inactive)	> 50 µM (inactive)	18 µM (inactive)	22.2 µM (inactive)	17	30.1 µM (inactive)	47.2 µM (inactive)	> 50 µM (inactive)	–
O=C1OCC(O)=C1C(c1ccc(Cl)cc1)c1cc2c(cc1O)OCO2 (centres undefined)	> 100 µM (inactive)	> 100 µM (inactive)	> 100 µM (inactive)	–	> 100 µM (inactive)	–	–	> 100 µM (inactive)	> 100 µM (inactive)	> 100 µM (inactive)	> 100 µM (inactive)	> 100 µM (inactive)	> 100 µM (inactive)	> 100 µM (inactive)	> 100 µM (inactive)	> 100	> 100 µM (inactive)	> 100 µM (inactive)	> 100 µM (inactive)	> 100 µM (inactive)
Cc1ccc(C(C)C)c(OCC(=O)N/N=C/c2c[nH]c3ccc(Br)cc23)c1	1.38 µM (inactive)	1.69 µM (inactive)	2 µM (inactive)	2.47 µM (inactive)	1.57 µM (inactive)	0.451 µM (active)	2.87 µM (inactive)	0.45 µM (active)	3.15 µM (inactive)	8.93 µM (inactive)	3 µM (inactive)	2.19 µM (inactive)	2.44 µM (inactive)	1.72 µM (inactive)	0.625 µM (active)	2.1	5.79 µM (inactive)	3.42 µM (inactive)	3.17 µM (inactive)	–
O=P1(C(O)c2ccccc2)N(Cc2ccccc2)[C@@H]2CCCC[C@H]2N1Cc1ccccc1 (some centres undefined)	30.3 µM (inactive)	14.8 µM (inactive)	28.6 µM (inactive)	–	26.3 µM (inactive)	47.9 µM (inactive)	21.4 µM (inactive)	34.6 µM (inactive)	27.4 µM (inactive)	> 100 µM (inactive)	12.3 µM (inactive)	31.2 µM (inactive)	27 µM (inactive)	21.5 µM (inactive)	24.5 µM (inactive)	34.5	40.8 µM (inactive)	20.8 µM (inactive)	21.3 µM (inactive)	20 µM (inactive)
CC1CCCc2c(-c3ccc(Cl)cc3)nc(N)c(C#N)c21 (centres undefined)	18.3 µM (inactive)	23.2 µM (inactive)	19.6 µM (inactive)	13.5 µM (inactive)	23.2 µM (inactive)	30.4 µM (inactive)	27.7 µM (inactive)	29 µM (inactive)	22.3 µM (inactive)	34.2 µM (inactive)	–	29.5 µM (inactive)	18.4 µM (inactive)	25.5 µM (inactive)	21.6 µM (inactive)	31	19.2 µM (inactive)	42.1 µM (inactive)	> 100 µM (inactive)	–
CN(C)CCCNC1=C(Cl)C(=O)c2c(O)ccc(O)c2C1=O	1.5 µM (inactive)	1.49 µM (inactive)	1.77 µM (inactive)	–	2.44 µM (inactive)	1.65 µM (inactive)	1.95 µM (inactive)	1.55 µM (inactive)	2.26 µM (inactive)	1.52 µM (inactive)	1.49 µM (inactive)	2.24 µM (inactive)	–	1.69 µM (inactive)	2.54 µM (inactive)	1.8	2.61 µM (inactive)	1.36 µM (inactive)	2.9 µM (inactive)	1.79 µM (inactive)
CCOC(=O)c1cc2c3c(c(C(C)=O)c(O)c2[nH]1)N(CC(C)CC)CC3 (centres undefined)	–	> 100 µM (inactive)	> 100 µM (inactive)	36.1 µM (inactive)	29.6 µM (inactive)	44.9 µM (inactive)	68.7 µM (inactive)	> 100 µM (inactive)	42.3 µM (inactive)	> 100 µM (inactive)	43.1 µM (inactive)	–	> 100 µM (inactive)	70 µM (inactive)	66.8 µM (inactive)	70.3	–	49.2 µM (inactive)	33 µM (inactive)	–
CCOc1ccc2nc3nc(O)nc(C)c3c(NC(C)(CO)CO)c2c1	> 100 µM (inactive)	> 100 µM (inactive)	> 100 µM (inactive)	–	> 100 µM (inactive)	> 100 µM (inactive)	> 100 µM (inactive)	4.08 µM (inactive)	> 100 µM (inactive)	> 100 µM (inactive)	> 100 µM (inactive)	> 100 µM (inactive)	> 100 µM (inactive)	> 100 µM (inactive)	> 100 µM (inactive)	> 100	> 100 µM (inactive)	> 100 µM (inactive)	> 100 µM (inactive)	> 100 µM (inactive)
C=C[C@@]1(C)CC(=O)[C@]2(O)[C@@]3(C)[C@@H](OC(C)=O)CCC(C)(C)[C@@H]3[C@H](OC(C)=O)[C@H](OC(C)=O)[C@@]2(C)O1	–	–	56.6 µM (inactive)	–	> 100 µM (inactive)	> 100 µM (inactive)	> 100 µM (inactive)	> 100 µM (inactive)	> 100 µM (inactive)	> 100 µM (inactive)	> 100 µM (inactive)	> 100 µM (inactive)	> 100 µM (inactive)	> 100 µM (inactive)	> 100 µM (inactive)	> 100	> 100 µM (inactive)	> 100 µM (inactive)	> 100 µM (inactive)	> 100 µM (inactive)
CN1CCN2CCN(C)CCN(CC1)CC2	> 100 µM (inactive)	> 100 µM (inactive)	> 100 µM (inactive)	> 100 µM (inactive)	> 100 µM (inactive)	> 100 µM (inactive)	> 100 µM (inactive)	> 100 µM (inactive)	> 100 µM (inactive)	> 100 µM (inactive)	> 100 µM (inactive)	> 100 µM (inactive)	> 100 µM (inactive)	> 100 µM (inactive)	> 100 µM (inactive)	> 100	> 100 µM (inactive)	> 100 µM (inactive)	> 100 µM (inactive)	–
OC1(c2ccc(Cl)cc2)C(N2CCCC2)c2ccccc2C2=NCCN21 (centres undefined)	15.1 µM (inactive)	11.5 µM (inactive)	16.1 µM (inactive)	13 µM (inactive)	18.6 µM (inactive)	24.3 µM (inactive)	20.1 µM (inactive)	28.5 µM (inactive)	10.9 µM (inactive)	13.9 µM (inactive)	20 µM (inactive)	37.2 µM (inactive)	21.9 µM (inactive)	18.5 µM (inactive)	30 µM (inactive)	21.4	31.8 µM (inactive)	35.1 µM (inactive)	24.3 µM (inactive)	–
c1ccc(N/N=C2\CC(c3ccccc3)Oc3ccccc32)cc1 (centres undefined)	40.8 µM (inactive)	67.8 µM (inactive)	22.6 µM (inactive)	–	43.1 µM (inactive)	60.4 µM (inactive)	69.3 µM (inactive)	24 µM (inactive)	32.1 µM (inactive)	> 100 µM (inactive)	46.2 µM (inactive)	34.5 µM (inactive)	65.3 µM (inactive)	37.6 µM (inactive)	47.1 µM (inactive)	31	61 µM (inactive)	24.3 µM (inactive)	49.3 µM (inactive)	43.4 µM (inactive)
